From PubChem BioAssay (NCI)
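96-well plates; 48 h exposure; 5 concentrations. Endpoints by linear interpolation between flanking doses. Not reached: highest tested concentration assigned. At the TGI there is no net growth.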

Assays:
Experiment in all cases: NCI tumour cell line growth inhibition, 48 h
[1] = system: OVCAR-8 ovarian
[2] = system: SF-539 CNS
[3] = system: DMS 273 small cell lung
[4] = system: RXF 393 renal
[5] = system: EKVX NSCLC
[6] = system: ACHN renal
[7] = system: HT29 colon
[8] = system: 786-0 renal
[9] = system: MALME-3M melanoma
[10] = system: HCC-2998 colon
[11] = system: U251 CNS
[12] = system: LXFL 529 NSCLC
[13] = system: M14 melanoma
[14] = system: TK-10 renal
[15] = system: UACC-62 melanoma
[16] = system: COLO 205 colon
[17] = system: UACC-257 melanoma
[18] = system: HL-60(TB) leukemia
[19] = system: HOP-18 NSCLC
[20] = system: SNB-19 CNS
[21] = system: HOP-92 NSCLC
[22] = system: NCI-H23 lung
[23] = system: A498 renal
[24] = system: OVCAR-4 ovarian
[25] = system: SK-OV-3 ovarian
[26] = system: IGROV1 ovarian
[27] = system: DLD-1 colon
[28] = system: SF-268 CNS
[29] = system: SF-295 CNS
[30] = system: SNB-75 CNS
[31] = system: A549 NSCLC
[32] = system: KM12 colon
[33] = system: M19-MEL melanoma
[34] = system: OVCAR-5 ovarian
[35] = system: SK-MEL-2 melanoma
[36] = system: NCI-H460 lung
[37] = system: SW-620 colon
[38] = system: SNB-78 CNS
[39] = system: SK-MEL-5 melanoma
[40] = system: OVCAR-3 ovarian
[41] = system: HOP-62 NSCLC
[42] = system: SR leukemia
[43] = system: RPMI-8226 leukemia
[44] = system: HCT-15 colon
[45] = system: SN12C renal
[46] = system: RXF-631 renal
[47] = system: XF 498 CNS
[48] = system: CAKI-1 renal
[49] = system: K-562 leukemia
[50] = system: LOX IMVI melanoma
[51] = system: HCT-116 colon
[52] = system: CCRF-CEM leukemia
[53] = system: MOLT-4 leukemia
[54] = system: UO-31 renal
[55] = system: DMS 114 small cell lung
[56] = system: NCI-H226 lung
[57] = system: NCI-H522 lung
[58] = system: KM20L2 colon
[59] = system: SK-MEL-28 melanoma
[60] = system: MDA-N

## Cn1c(=O)c2c3oc(=O)cc(O)c3c(=O)n3c4ccccc4n(c1=O)c23
[1]
  TGI: > 100 µM
[2]
  TGI: > 100 µM
[3]
  TGI: > 100 µM
[4]
  TGI: > 100 µM
[5]
  TGI: > 100 µM
[6]
  TGI: > 100 µM
[7]
  TGI: > 100 µM
[8]
  TGI: > 100 µM
[9]
  TGI: > 100 µM
[10]
  TGI: > 100 µM
[11]
  TGI: > 100 µM
[12]
  TGI: > 100 µM
[13]
  TGI: > 100 µM
[14]
  TGI: > 100 µM
[15]
  TGI: > 100 µM
[16]
  TGI: 72.6 µM
[17]
  TGI: 82.9 µM
[18]
  TGI: 78.7 µM
[19]
  TGI: > 100 µM
[20]
  TGI: > 100 µM
[21]
  TGI: 95.9 µM
[22]
  TGI: > 100 µM
[23]
  TGI: > 100 µM
[24]
  TGI: > 100 µM
[25]
  TGI: > 100 µM
[26]
  TGI: > 100 µM
[27]
  TGI: > 100 µM
[28]
  TGI: > 100 µM
[29]
  TGI: > 100 µM
[30]
  TGI: 87.8 µM
[31]
  TGI: > 100 µM
[32]
  TGI: > 100 µM
[33]
  TGI: > 100 µM
[34]
  TGI: > 100 µM
[35]
  TGI: 69 µM
[36]
  TGI: > 100 µM
[37]
  TGI: > 100 µM
[38]
  TGI: > 100 µM
[39]
  TGI: 81 µM
[40]
  TGI: 78.6 µM
[41]
  TGI: > 100 µM
[42]
  TGI: > 100 µM
[43]
  TGI: 91.5 µM
[44]
  TGI: > 100 µM
[45]
  TGI: > 100 µM
[46]
  TGI: > 100 µM
[47]
  TGI: 68 µM
[48]
  TGI: > 100 µM
[49]
  TGI: 65.8 µM
[50]
  TGI: 82.4 µM
[51]
  TGI: > 100 µM
[52]
  TGI: > 100 µM
[53]
  TGI: > 100 µM
[54]
  TGI: > 100 µM

## CC(=O)O[C@]12CCCCCCC1C1(O)C(O)CCC[C@H]12 (some centres undefined)
[1]
  TGI: > 100 µM
[3]
  TGI: > 100 µM
[4]
  TGI: > 100 µM
[5]
  TGI: > 100 µM
[6]
  TGI: > 100 µM
[7]
  TGI: > 100 µM
[8]
  TGI: > 100 µM
[9]
  TGI: > 100 µM
[11]
  TGI: > 100 µM
[55]
  TGI: > 100 µM
[12]
  TGI: > 100 µM
[13]
  TGI: > 100 µM
[14]
  TGI: > 100 µM
[56]
  TGI: > 100 µM
[15]
  TGI: > 100 µM
[16]
  TGI: > 100 µM
[17]
  TGI: > 100 µM
[19]
  TGI: > 100 µM
[20]
  TGI: > 100 µM
[22]
  TGI: > 100 µM
[24]
  TGI: > 100 µM
[25]
  TGI: > 100 µM
[57]
  TGI: > 100 µM
[28]
  TGI: > 100 µM
[29]
  TGI: > 100 µM
[30]
  TGI: > 100 µM
[31]
  TGI: > 100 µM
[32]
  TGI: > 100 µM
[33]
  TGI: > 100 µM
[58]
  TGI: > 100 µM
[35]
  TGI: > 100 µM
[36]
  TGI: > 100 µM
[37]
  TGI: > 100 µM
[38]
  TGI: > 100 µM
[39]
  TGI: > 100 µM
[41]
  TGI: > 100 µM
[42]
  TGI: > 100 µM
[43]
  TGI: > 100 µM
[44]
  TGI: > 100 µM
[45]
  TGI: > 100 µM
[47]
  TGI: > 100 µM
[49]
  TGI: > 100 µM
[50]
  TGI: > 100 µM
[59]
  TGI: > 100 µM
[51]
  TGI: > 100 µM
[52]
  TGI: > 100 µM
[53]
  TGI: > 100 µM
[54]
  TGI: > 100 µM

## CCN(CC)c1ccc(C(=C2C=CC(=[N+](CC)CC)C=C2)c2ccc(N(CC)CC)cc2)cc1
[3]
  TGI: 1.15 µM
[4]
  TGI: 1.04 µM
[5]
  TGI: 1.54 µM
[6]
  TGI: 0.348 µM
[9]
  TGI: 0.588 µM
[11]
  TGI: 1.31 µM
[55]
  TGI: 0.787 µM
[14]
  TGI: 1.45 µM
[15]
  TGI: 1.52 µM
[16]
  TGI: 0.503 µM
[17]
  TGI: 1.01 µM
[20]
  TGI: 1.79 µM
[60]
  TGI: 1.16 µM
[25]
  TGI: 0.624 µM
[26]
  TGI: 1.18 µM
[29]
  TGI: 1.11 µM
[30]
  TGI: 1.44 µM
[32]
  TGI: 1.18 µM
[33]
  TGI: 1.31 µM
[34]
  TGI: 1.06 µM
[35]
  TGI: 0.687 µM
[39]
  TGI: 0.237 µM
[41]
  TGI: 1.58 µM
[42]
  TGI: 0.582 µM
[46]
  TGI: 1.18 µM
[47]
  TGI: 0.0815 µM
[59]
  TGI: 1.82 µM
[51]
  TGI: 1.31 µM
[53]
  TGI: 1.78 µM
[54]
  TGI: 0.724 µM

## S=C(Nc1ccccc1)Nc1[nH]c(=S)sc1-c1nc2ccccc2[nH]1
[1]
  TGI: > 100 µM
[2]
  TGI: 74.3 µM
[3]
  TGI: > 100 µM
[4]
  TGI: > 100 µM
[5]
  TGI: > 100 µM
[6]
  TGI: > 100 µM
[7]
  TGI: > 100 µM
[8]
  TGI: > 100 µM
[9]
  TGI: > 100 µM
[10]
  TGI: > 100 µM
[11]
  TGI: > 100 µM
[12]
  TGI: > 100 µM
[13]
  TGI: > 100 µM
[14]
  TGI: > 100 µM
[56]
  TGI: 29.4 µM
[15]
  TGI: > 100 µM
[16]
  TGI: > 100 µM
[17]
  TGI: > 100 µM
[18]
  TGI: > 100 µM
[19]
  TGI: > 100 µM
[20]
  TGI: > 100 µM
[22]
  TGI: > 100 µM
[23]
  TGI: > 100 µM
[24]
  TGI: 81.2 µM
[25]
  TGI: 80.9 µM
[57]
  TGI: > 100 µM
[26]
  TGI: > 100 µM
[27]
  TGI: > 100 µM
[28]
  TGI: > 100 µM
[29]
  TGI: > 100 µM
[30]
  TGI: 78.5 µM
[31]
  TGI: > 100 µM
[32]
  TGI: > 100 µM
[33]
  TGI: > 100 µM
[34]
  TGI: > 100 µM
[35]
  TGI: > 100 µM
[37]
  TGI: > 100 µM
[38]
  TGI: > 100 µM
[39]
  TGI: > 100 µM
[40]
  TGI: > 100 µM
[41]
  TGI: 66.8 µM
[43]
  TGI: > 100 µM
[44]
  TGI: > 100 µM
[45]
  TGI: > 100 µM
[46]
  TGI: > 100 µM
[48]
  TGI: > 100 µM
[49]
  TGI: > 100 µM
[50]
  TGI: > 100 µM
[59]
  TGI: > 100 µM
[52]
  TGI: > 100 µM
[53]
  TGI: > 100 µM
[54]
  TGI: > 100 µM
